US12251373B2, “Compounds and methods of treating retinal degeneration” (CASE WESTERN RESERVE UNIVERSITY, priority 2017, dated 2025)

Columns and labels:
[1] = target: T1, human rod opsin D190N (Homo sapiens, UniProt P08100, D190N); assay: Cell surface immunostain for rhodopsin mutants in NIH3T3 cells; type: cell-based; conditions: YC-001 treatment
T1 construct: expressed in transfected cells; host or cells: NIH3T3, transfected with pcDNA3.1-hOpsin mutant
Protocol: Human rhodopsin cDNA was placed into the pcDNA3.1(+) vector (pcDNA3.1-hOpsin). Site directed mutagenesis was performed following the QuickChange II site-directed mutagenesis kit (Agilent Technologies Inc.). Primers for the following mutations were as follows: […]
DNA vectors with rhodopsin mutations were confirmed by Sanger sequencing. After NIH3T3 cells were transfected with pcDNA3.1-hOpsin or its mutants for 24 h, these cells were resuspended and seeded into a 96-well plate with an optic bottom (Corning). […] Each condition was repeated in three wells. The treated plate was covered in tin foil and incubated at 37° C. with 5% CO2 for 24 h. Cells were then immunostained with Alexa […] 488-conjugated B6-30 anti-rhodopsin antibody. Cells were not exposed to detergents so that cell membranes were kept intact and only rhodopsin on the cell surface was immunostained. Alexa 488 fluorescence was imaged by the ImageExpress (Molecular Devices) high-content imager with a 20× objective. Medicinal Chemistry of YC-001

[2] = target: T2, ovine COX-1 (Ovis aries, UniProt P05979); assay: COX-1 activity assay; type: biochemical; conditions: up to 80 μM of YC-001
T2 construct: purchased Abcam
T2 sequence (P05979 25-600): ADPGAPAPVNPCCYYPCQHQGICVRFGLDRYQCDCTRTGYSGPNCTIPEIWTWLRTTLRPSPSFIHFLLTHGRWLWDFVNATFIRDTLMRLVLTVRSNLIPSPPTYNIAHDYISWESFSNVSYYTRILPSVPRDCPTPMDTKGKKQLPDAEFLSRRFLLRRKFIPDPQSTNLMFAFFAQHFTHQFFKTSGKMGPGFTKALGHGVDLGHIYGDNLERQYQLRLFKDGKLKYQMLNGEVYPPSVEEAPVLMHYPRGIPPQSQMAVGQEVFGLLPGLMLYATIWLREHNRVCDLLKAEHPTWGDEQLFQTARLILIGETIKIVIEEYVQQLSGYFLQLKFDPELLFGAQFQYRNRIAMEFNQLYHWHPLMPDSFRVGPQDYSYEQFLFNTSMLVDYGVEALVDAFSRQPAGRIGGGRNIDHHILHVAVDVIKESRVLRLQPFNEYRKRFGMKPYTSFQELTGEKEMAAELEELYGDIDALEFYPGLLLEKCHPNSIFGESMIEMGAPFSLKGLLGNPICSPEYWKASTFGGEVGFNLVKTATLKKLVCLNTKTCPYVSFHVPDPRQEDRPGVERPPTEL
Protocol: The effect of the compound YC-001 on cyclooxygenase 1 (COX-1) activity was evaluated using the COX1 Inhibitor Screening Kit (Abcam, Cambridge, MA, USA) according to the manufacture's protocol. Briefly, the assay is based on the fluorometric detection of Prostaglandin G2, the intermediate product generated by the COX-1 enzyme. COX reaction mix included ovine COX-1, COX probe and COX cofactor and was prepared in a 96-well plate. YC-001 working solutions were dissolved in DMSO, and then mixed with COX Reaction Mix to the final concentrations (80, 40, 20, 10, 5, 2.5, 1.25, 0.625, 0.312, 0.156, 0.078 and 0.039 μM). Equivalent volume of DMSO was used as vehicle control and SC560 was used as a positive control. All controls and samples were measured in triplicate. Then Arachidonic Acid was added into each well to initiate all the reactions at the same time. The fluorescence was measured at Ex/Em=535/587 nm in a kinetic mode for 15 min at 25° C. Five time points were chosen in the linear range of the plot and the corresponding values for the fluorescence were used to calculate the slope of the linear regression equation. Relative COX-1 activity was calculated as Equation 5: […]

[3] = test system: Abca4−/−Rdh8−/− mice; assay: Bright light-induced retinal degeneration; type: in vivo, mouse; conditions: 50 or 200 mg kg−1 bw i.p. 30 min before 10,000 lux for 30 min; SD-OCT and HE seven days later
Protocol: Abca4^−/−Rdh8^−/−42 mice with a 129Sv/Ev or C57BL/6 mixed background were used for light-induced retinal degeneration assays. […] Male and female C57BL/6 mice (Jackson Laboratory, Bar Harbor, ME) at six weeks of age were used to test the effects of YC-001 treatment on the retinoid cycle and bw as well as to determine parenterally administrated YC-001 enter the eyes. YC-001 was dissolved in DMSO at 80-160 mg mL^−1, and the solution was provided to mice by i.p. injection. All mice were housed and maintained in a 12 h light (≤10 lux)/12 h dark cycle in the Animal Resource Center at the School of Medicine, CWRU. […]
Retinal degeneration was initiated by exposing Abca4^−/−Rdh8^−/− mice for 30 min to white light with an intensity of 10,000 lux (150-W spiral lamp, Hampton Bay, Home Depot, Atlanta, GA USA). […] Retinal structures were analyzed by SD-OCT seven days after bright light exposure. […]
To assess the effect of YC-001 treatment on Abca4^−/−Rdh8^−/− mice following bright light-induced retinal degeneration, we performed ultrahigh-resolution SD-OCT (Bioptigen, Morrisville, NC) for in vivo imaging of mouse retinas. […] To measure changes to photoreceptors in the retinas challenged with bright light and assess the effect of YC-001 on retinal protection, the thickness of the ONL was measured along the scanned SD-OCT image at 8 points from the nasal to temporal end of the retina. […]

O=C1OCC(c2ccc(Cl)s2)=C1c1cccs1 [YC-001]
cell surface staining of mutant opsin [1]: increased significantly
COX-1 enzymatic activity [2]: didn't see changes
protection of the ONL from light-induced damage [3]: dose-dependent protection of the ONL
